Article PMC9910428 (Proceedings of the National Academy of Sciences of the …, 2022)
Read-outs that look alike come from different tables or passages of the source.

Experiments:
Sm.TRPM[D1677E]PZQ = assay: FLIPR Ca2+ reporter assay, Sm.TRPM[D1677E]PZQ mutant; type: cell-based, Schistosoma mansoni
Sm.TRPM[N1388H]PZQ = assay: FLIPR Ca2+ reporter assay, Sm.TRPM[N1388H]PZQ mutant; type: cell-based, Schistosoma mansoni
Sm.TRPM[T1518S]PZQ = assay: FLIPR Ca2+ reporter assay, Sm.TRPM[T1518S]PZQ mutant; type: cell-based, Schistosoma mansoni
Ml.TRPM[E1495D]PZQ = Ml.TRPM[E1495D]PZQ (Macrostomum lignano, UniProt A0A267GS13); type: cell-based
Ml.TRPM[E1495D]PZQ, sequence (A0A267GS13 1-1954, stated change not applied): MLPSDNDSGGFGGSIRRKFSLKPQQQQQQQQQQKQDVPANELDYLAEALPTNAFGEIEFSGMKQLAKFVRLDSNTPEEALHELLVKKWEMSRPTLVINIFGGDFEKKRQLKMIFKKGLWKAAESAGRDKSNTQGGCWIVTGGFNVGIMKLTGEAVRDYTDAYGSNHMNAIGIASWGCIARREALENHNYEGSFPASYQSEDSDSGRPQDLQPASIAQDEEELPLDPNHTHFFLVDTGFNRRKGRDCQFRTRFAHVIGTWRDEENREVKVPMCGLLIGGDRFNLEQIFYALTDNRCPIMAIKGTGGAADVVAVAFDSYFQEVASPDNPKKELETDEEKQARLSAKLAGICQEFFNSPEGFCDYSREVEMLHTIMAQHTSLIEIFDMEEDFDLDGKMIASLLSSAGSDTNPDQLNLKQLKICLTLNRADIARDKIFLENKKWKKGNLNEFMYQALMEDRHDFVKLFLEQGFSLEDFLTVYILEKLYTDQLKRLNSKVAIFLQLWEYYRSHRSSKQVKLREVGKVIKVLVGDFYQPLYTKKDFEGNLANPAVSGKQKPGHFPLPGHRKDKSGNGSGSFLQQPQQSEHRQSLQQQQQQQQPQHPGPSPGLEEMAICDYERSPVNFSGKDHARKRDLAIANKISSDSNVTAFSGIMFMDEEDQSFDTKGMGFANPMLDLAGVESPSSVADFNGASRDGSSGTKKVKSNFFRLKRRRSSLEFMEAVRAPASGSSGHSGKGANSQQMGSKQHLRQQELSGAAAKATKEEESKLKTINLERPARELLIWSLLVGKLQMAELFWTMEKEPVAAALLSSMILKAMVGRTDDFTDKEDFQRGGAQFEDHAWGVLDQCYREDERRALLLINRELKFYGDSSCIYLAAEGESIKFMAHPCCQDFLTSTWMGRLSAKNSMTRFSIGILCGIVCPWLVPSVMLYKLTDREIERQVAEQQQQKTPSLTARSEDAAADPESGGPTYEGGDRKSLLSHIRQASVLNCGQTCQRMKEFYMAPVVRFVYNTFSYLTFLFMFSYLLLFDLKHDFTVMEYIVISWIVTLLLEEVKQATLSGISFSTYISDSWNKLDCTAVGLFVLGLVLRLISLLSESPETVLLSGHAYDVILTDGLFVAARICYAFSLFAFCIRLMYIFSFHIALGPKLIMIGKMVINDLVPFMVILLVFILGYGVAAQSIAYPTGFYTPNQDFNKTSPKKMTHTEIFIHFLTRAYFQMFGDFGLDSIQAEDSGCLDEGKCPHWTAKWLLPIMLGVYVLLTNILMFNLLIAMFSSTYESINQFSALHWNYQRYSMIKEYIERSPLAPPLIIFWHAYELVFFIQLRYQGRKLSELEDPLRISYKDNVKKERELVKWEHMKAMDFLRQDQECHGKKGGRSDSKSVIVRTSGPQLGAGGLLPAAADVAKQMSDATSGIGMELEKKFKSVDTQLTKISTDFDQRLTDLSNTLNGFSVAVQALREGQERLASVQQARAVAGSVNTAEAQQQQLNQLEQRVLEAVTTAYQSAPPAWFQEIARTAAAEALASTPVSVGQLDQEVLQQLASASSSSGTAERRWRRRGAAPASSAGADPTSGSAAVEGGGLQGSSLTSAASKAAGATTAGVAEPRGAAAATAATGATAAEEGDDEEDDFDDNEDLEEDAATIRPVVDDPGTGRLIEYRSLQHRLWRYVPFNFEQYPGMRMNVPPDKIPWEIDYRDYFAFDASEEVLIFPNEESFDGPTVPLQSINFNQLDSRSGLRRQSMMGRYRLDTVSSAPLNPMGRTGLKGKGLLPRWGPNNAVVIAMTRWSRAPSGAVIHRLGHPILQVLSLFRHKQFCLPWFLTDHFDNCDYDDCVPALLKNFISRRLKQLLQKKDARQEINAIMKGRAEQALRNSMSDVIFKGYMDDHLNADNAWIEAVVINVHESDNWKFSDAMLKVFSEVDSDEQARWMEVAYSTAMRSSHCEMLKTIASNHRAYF

Sm.TRPM[D1677Y]PZQ = assay: FLIPR Ca2+ reporter assay, Sm.TRPM[D1677Y]PZQ mutant; type: cell-based, Schistosoma mansoni
Sm.TRPM[W1667A]PZQ = assay: FLIPR Ca2+ reporter assay, Sm.TRPM[W1667A]PZQ mutant; type: cell-based, Schistosoma mansoni
cyclophyllidean cestodes = conditions: cited from earlier work
[1] = tested on: larval and adult diphyllobothriids; conditions: cited from earlier work
D. japonica = conditions: read-out: EC50 for evoking bipolarity; cited from earlier work
Fh.TRPMPZQ = Fh.TRPMPZQ with S1 threonine residue; cited from earlier work

SMILES: O=C(C1CCCCC1)N1CC(=O)N2CCc3ccccc3C2C1 (racemic) [(±)-PZQ, praziquantel]
- responsiveness of mutant channel (Sm.TRPM[D1677E]PZQ): no responsiveness
- responsiveness of mutant channel (Sm.TRPM[D1677E]PZQ; listed as PZQ): ablated sensitivity
- sensitivity compared with the wild-type channel (Sm.TRPM[N1388H]PZQ): equivalent sensitivity
- sensitivity compared with the wild-type channel (Sm.TRPM[T1518S]PZQ): equivalent sensitivity
- increase of sensitivity versus wild-type Ml.TRPMPZQ (Ml.TRPM[E1495D]PZQ): ~ 2.5 fold
- EC50 (Ml.TRPM[E1495D]PZQ; Ml.TRPM[E1495D]PZQ, Ca2+): 21.1 ± 3.1 µM
- sensitivity of mutant channel compared with wild type (Sm.TRPM[D1677Y]PZQ): enhanced
- sensitivity of mutant channel compared with wild type (Sm.TRPM[W1667A]PZQ): increased sensitivity
- lowest concentration with deleterious effects in vitro (cyclophyllidean cestodes): 320 pM
- concentration required to show lethality [1]: > 320 µM
- EC50 (D. japonica): 35 ± 7 µM
- sensitivity of channel (Fh.TRPMPZQ): insensitive
